# Assay results published in patent US9782424B2, “Synergistic combination comprising avermectins and a NSAID for tumor inhibition” (Ectin Research AB, priority 2011, dated 2017).
# Experiments:
# Assay type in all cases: cell-based, human
# [1] = system: urinary bladder cell line (UM-UC-3); test: XTT-assay proliferation rate, urinary bladder cell line; settings: UM-UC-3 (Table 3), no IVM
# Procedure: (§1) Commercially available human tumor cell lines were purchased from ATCC (ATCC/LGC-standards, Borás, Sweden). […] Briefly, ampoules of frozen cells were thawed by submerging into a 37° C. water bath for 45 s. […] With supernatant discarded, cell pellets were further resuspended with 5 ml complete medium into 25 cm^2 cell culture flasks (Cell+, Sarstedt, Nümbrecht, Germany). Tumor cells were cultured until sub-confluence and further sub-cultured with Trypsin (0.5%), EDTA (0.2%) solution (T4174, TE-10x, Sigma) in sterile sodium chloride. Culture media was changed two-three times a week. Culture flasks (Cell+, Sarstedt, Nümbrecht, Germany) and culture plates (Falcon/BD, Franklin Lakes, N.J., USA) were used for experimental set-ups. Cells were regularly monitored using an inverted microscope connected to a digital photo equipment (Axiovert 25 and Axiovision, Zeiss, Carl Zeiss AG, Germany) (FIG. 1). Described culture techniques and equipment have been used extensively in the laboratory
# (§2) The proliferation rates of the different human tumor cell lines were studied using a method based on the conversion of a sodium salt (XTT-assay, Sigma) into a stable orange color that could be analyzed in a spectrophotometer. […] The color change was measured using a 96-well plate reader with software to calculate the absorbance at 450 nm (V-max/Softmax Pro, Molecular Devices, USA).
# (§3) Increasing concentrations of substance ivermectin was added with an 8-channel pipette (Titertek, Kem-En-Tec, Taastrup, Denmark) together with sterile pipette tips (Molecular Bioproducts, San Diego, Calif., USA). Cell cultures including active substances were incubated for 24 hours (and 96 hours). Untreated wells including culture medium only served as untreated controls. The XTT-assay substrate was added and after gentle agitation using a micro plate shaker, absorbencies at 450 and 650 nm were measured. Levels from medium were subtracted and compared with control wells, using culture medium only.
# [2] = system: colorectal cell line (Colo205); test: XTT-assay proliferation rate, colorectal cell line Colo205; settings: Colo205 (Table 4), no IVM
# Source text: Commercially available human tumor cell lines were purchased from […], Borás, Sweden). Cell lines from urinary bladder (UM-UC-3, #CRL-1749), colorectal carcinoma (Colo205, #CCL-222 and HT29, #HTB-38), prostate carcinoma (LNCaP, #CRL-1740) and breast carcinoma (ZR-75-1, #CRL-1500) were purchased and stored in liquid nitrogen. […] Tumor cell lines were handled aseptically using a laminar airflow (LAF) bench (Holten 2448, Ninolab, Sweden) and stored in a liquid nitrogen tank and were initiated in culture as previously described (Falk P. Experimental models of the peritoneal environment: Effects of TGF-beta and Hyaluronan. Göteborg: University of Gothenburg; 2008). Briefly, ampoules of frozen cells were thawed by submerging into a 37° C. water bath for 45 s. […] Culture media was changed two-three times a week. Culture flasks (Cell+, Sarstedt, Nümbrecht, Germany) and culture plates (Falcon/BD, Franklin Lakes, N.J., USA) were used for experimental set-ups. […] Described culture techniques and equipment have been used extensively in the laboratory The proliferation rates of the different human tumor cell lines were studied using a method based on the conversion of a sodium salt (XTT-assay, Sigma) into a stable orange color that could be analyzed in a spectrophotometer. The color change is proportional to the mitochondrial dehydrogenase activity resulting in an effective technique for measuring cell toxicity (Roehm N W, Rodgers […], Glasebrook A L. An improved colorimetric assay for cell proliferation and viability utilizing the tetrazolium salt XTT. […] The color change was measured using a 96-well plate reader with software to calculate the absorbance at 450 nm (V-max/Softmax Pro, Molecular Devices, USA). […] RPMI 1640 and EMEM without phenol red was used during the experiments to reduce the red color background signal in the XTT-assay. […] Untreated wells including culture medium only served as untreated controls. The XTT-assay substrate was added and after gentle agitation using a micro plate shaker, absorbencies at 450 and 650 nm were measured. Levels from medium were subtracted and compared with control wells, using culture medium only.
# [3] = system: breast cell line (ZR-75-1); test: XTT-assay proliferation rate, breast cell line; settings: ZR-75-1 (Table 6), no IVM
# Procedure: as §1, §2, §3
# [4] = system: colorectal cells (Colo205); test: Morphology of cultured tumor cells, Colo205; settings: ivermectin 10 μM alone, albendazole 20 and 40 μM alone (FIG. 11)
# Procedure: as §1
# (§4) The effect of Ivermectin, selamectin, abamectin alone, or in combination with ketoconazole, albendazole, ibuprofen, diclofenac and celecoxib on the morphology of cultured human tumor cells was studied. The effect of ivermectin in the presence of increasing concentration of ivermectin was also investigated. Cells were grown into sub-confluence and then sub-cultured into 12 and 24 well plates (Sarstedt, Falcon/BD) for morphology studies, or in 96 well plates (Sarstedt, Falcon/BD) for proliferation studies.
# [5] = system: prostatic cell line (LNCaP); test: XTT-assay proliferation rate, prostatic cell line; settings: LNCaP (Table 5); single agent 10 μmol/L, no IVM
# Procedure: as §1, §2, §3
# prostate cells (LNCaP) = test: Morphology of cultured tumor cells, LNCaP
# Procedure: as §1, §4
# [6] = system: prostatic cell line (LNCaP); test: XTT-assay proliferation rate, prostatic cell line; settings: for Proliferation rate compared to untreated control: LNCaP (Table 5), no IVM
SMILES,Proliferation rate compared to untreated medium control ([1]; single agent 10 μmol/L) [%],Proliferation rate compared to untreated medium control ([1]; single agent 20 μmol/L) [%],Proliferation rate compared to untreated medium control ([1]; single agent 40 μmol/L) [%],Proliferation rate compared to medium control ([2]; single agent 10 μmol/L) [%],Proliferation rate compared to medium control ([2]; single agent 20 μmol/L) [%],Proliferation rate compared to medium control ([2]; single agent 40 μmol/L) [%],Proliferation rate compared to untreated control ([3]; single agent 10 μmol/L) [%],Proliferation rate compared to untreated control ([3]; single agent 20 μmol/L) [%],Proliferation rate compared to untreated control ([3]; single agent 40 μmol/L) [%],"Decreased growth of cells, substances tested alone [4]",Proliferation rate compared to untreated control [5] [%],Effect on morphology (prostate cells (LNCaP); ketoconazole 10 μM),Effect on morphology (prostate cells (LNCaP); ketoconazole 20 and 40 μM),"Proliferation rate compared to untreated control ([6]; single agent 10 μmol/L, listed as Ket) [%]",Proliferation rate compared to untreated control ([6]; single agent 20 μmol/L) [%],Proliferation rate compared to untreated control ([6]; single agent 40 μmol/L) [%],"Effect on proliferation rate ([6]; LNCaP, ketoconazole alone at 20 and 40 μM)"
"CC(C)Cc1ccc(C(C)C(=O)O)cc1 (racemic) [ibuprofen, (RS)-2-(4-(2-methylpropyl)phenyl)propanoic acid]",103 ± 2,106 ± 2,99 ± 3,90.1 ± 8.8,92.2 ± 8.2,90.8 ± 6.3,115.2 ± 3.8,116.2 ± 1.9,108.7 ± 6.7,,,,,,,,
"CCCSc1ccc2nc(NC(=O)OC)[nH]c2c1 [albendazole, Methyl[6-(propylthio)-1H-benzoimidazol-2-yl]carbamate]",,,,,,,,,,not seen,,,,,,,
"Cc1ccc(-c2cc(C(F)(F)F)nn2-c2ccc(S(N)(=O)=O)cc2)cc1 [celecoxib, 4-[5-(4-methylphenyl)-3-(trifluoromethyl)pyrazol-1-yl]benzenesulfonamide]",103 ± 9,100 ± 6,106 ± 1,98.7 ± 15.8,94.8 ± 2.5,94.5 ± 6.6,116.5 ± 4.4,110.6 ± 13.3,95.2 ± 4.9,,,,,,,,
"CC(=O)N1CCN(c2ccc(OC[C@H]3CO[C@](Cn4ccnc4)(c4ccc(Cl)cc4Cl)O3)cc2)CC1 [ketoconazole, 1-[4-(4-{[(2R,4S)-2-(2,4-Dichlorophenyl)-2-(1H-imidazol-1-ylmethyl)-1,3-dioxolan-4-yl]methoxy}phenyl)piperazin-1-yl]ethan-1-one]",95 ± 6,99 ± 6,103 ± 2,94.8 ± 6.3,93.4 ± 8.1,72.1 ± 15.5,,,,,104.6±3.0,not microscopically affected,did affect morphology,104.6 ± 3.0,76.3 ± 2.3,68.0 ± 1.8,decreased the proliferation rate
